# ± gives the expanded uncertainty stated by the source.
# Conditions: Coaxial cylinder method
compound,measurement,setting,value
CCC [propane],thermal conductivity,"365.72 K, 3978 kPa, Liquid",0.08613 ± 0.0083 W/m/K
same,thermal conductivity,"365.72 K, 3979 kPa, Liquid",0.08495 ± 0.0083 W/m/K
same,thermal conductivity,"365.72 K, 3980 kPa, Liquid",0.08381 ± 0.0083 W/m/K
same,thermal conductivity,"365.72 K, 3985 kPa, Liquid",0.07882 ± 0.0075 W/m/K
same,thermal conductivity,"365.72 K, 3990 kPa, Liquid",0.07478 ± 0.0069 W/m/K
same,thermal conductivity,"365.72 K, 3995 kPa, Liquid",0.07164 ± 0.0061 W/m/K
same,thermal conductivity,"365.72 K, 4000 kPa, Liquid",0.06921 ± 0.0055 W/m/K
same,thermal conductivity,"365.72 K, 4010 kPa, Liquid",0.066 ± 0.0047 W/m/K
same,thermal conductivity,"365.72 K, 4014 kPa, Liquid",0.06521 ± 0.0045 W/m/K
same,thermal conductivity,"365.72 K, 4020 kPa, Liquid",0.06438 ± 0.0043 W/m/K
same,thermal conductivity,"365.72 K, 4025 kPa, Liquid",0.06418 ± 0.0043 W/m/K
same,thermal conductivity,"365.72 K, 4030 kPa, Liquid",0.06394 ± 0.0042 W/m/K
same,thermal conductivity,"365.72 K, 4035 kPa, Liquid",0.06394 ± 0.0042 W/m/K
same,thermal conductivity,"365.72 K, 4040 kPa, Liquid",0.06389 ± 0.0042 W/m/K
same,thermal conductivity,"365.72 K, 4045 kPa, Liquid",0.06389 ± 0.0042 W/m/K
same,thermal conductivity,"365.72 K, 4050 kPa, Liquid",0.06389 ± 0.0042 W/m/K
same,thermal conductivity,"365.72 K, 4055 kPa, Liquid",0.06385 ± 0.0042 W/m/K
same,thermal conductivity,"365.72 K, 4060 kPa, Liquid",0.06385 ± 0.0042 W/m/K
same,thermal conductivity,"365.72 K, 4080 kPa, Liquid",0.06377 ± 0.0042 W/m/K
same,thermal conductivity,"365.72 K, 4100 kPa, Liquid",0.06375 ± 0.0042 W/m/K
same,thermal conductivity,"365.72 K, 4120 kPa, Liquid",0.06375 ± 0.0042 W/m/K
same,thermal conductivity,"365.72 K, 4140 kPa, Liquid",0.06377 ± 0.0042 W/m/K
same,thermal conductivity,"365.72 K, 4160 kPa, Liquid",0.06377 ± 0.0042 W/m/K
same,thermal conductivity,"365.72 K, 4180 kPa, Liquid",0.06377 ± 0.0042 W/m/K
same,thermal conductivity,"365.72 K, 4200 kPa, Liquid",0.06381 ± 0.0042 W/m/K
same,thermal conductivity,"365.72 K, 4250 kPa, Liquid",0.06392 ± 0.0042 W/m/K
same,thermal conductivity,"365.72 K, 4275 kPa, Liquid",0.06396 ± 0.0042 W/m/K
same,thermal conductivity,"365.72 K, 4350 kPa, Liquid",0.06412 ± 0.0042 W/m/K
same,thermal conductivity,"365.72 K, 4400 kPa, Liquid",0.06428 ± 0.0042 W/m/K
same,thermal conductivity,"365.72 K, 4450 kPa, Liquid",0.06442 ± 0.0042 W/m/K
same,thermal conductivity,"365.72 K, 4500 kPa, Liquid",0.06459 ± 0.0042 W/m/K
same,thermal conductivity,"365.72 K, 4560 kPa, Liquid",0.06484 ± 0.0042 W/m/K
same,thermal conductivity,"365.72 K, 4580 kPa, Liquid",0.0649 ± 0.0042 W/m/K
same,thermal conductivity,"365.72 K, 4670 kPa, Liquid",0.06519 ± 0.0042 W/m/K
same,thermal conductivity,"365.72 K, 4690 kPa, Liquid",0.06519 ± 0.0042 W/m/K
same,thermal conductivity,"366.45 K, 3595 kPa, Gas",0.03694 ± 0.0023 W/m/K
same,thermal conductivity,"366.45 K, 3610 kPa, Gas",0.0371 ± 0.0023 W/m/K
same,thermal conductivity,"366.45 K, 3880 kPa, Gas",0.04193 ± 0.0026 W/m/K
same,thermal conductivity,"366.45 K, 3882 kPa, Gas",0.04198 ± 0.0026 W/m/K
same,thermal conductivity,"366.45 K, 3908 kPa, Gas",0.04282 ± 0.0027 W/m/K
same,thermal conductivity,"366.45 K, 3915 kPa, Gas",0.04316 ± 0.0027 W/m/K
same,thermal conductivity,"366.45 K, 3920 kPa, Gas",0.04339 ± 0.0027 W/m/K
same,thermal conductivity,"366.45 K, 3925 kPa, Gas",0.04359 ± 0.0027 W/m/K
same,thermal conductivity,"366.45 K, 3930 kPa, Gas",0.04383 ± 0.0027 W/m/K
same,thermal conductivity,"366.45 K, 3935 kPa, Gas",0.04406 ± 0.0028 W/m/K
same,thermal conductivity,"366.45 K, 3937 kPa, Gas",0.04421 ± 0.0028 W/m/K
same,thermal conductivity,"366.45 K, 3949 kPa, Gas",0.04486 ± 0.0028 W/m/K
same,thermal conductivity,"366.45 K, 3950 kPa, Gas",0.04487 ± 0.0028 W/m/K
same,thermal conductivity,"366.45 K, 3951 kPa, Gas",0.04497 ± 0.003 W/m/K
same,thermal conductivity,"366.45 K, 3952 kPa, Gas",0.04502 ± 0.0031 W/m/K
same,thermal conductivity,"366.45 K, 3953 kPa, Gas",0.04507 ± 0.022 W/m/K
same,thermal conductivity,"366.45 K, 3954 kPa, Gas",0.04513 ± 0.021 W/m/K
same,thermal conductivity,"366.45 K, 3955 kPa, Gas",0.04847 ± 0.02 W/m/K
same,thermal conductivity,"366.45 K, 3956 kPa, Gas",0.0498 ± 0.019 W/m/K
same,thermal conductivity,"366.45 K, 3957 kPa, Gas",0.0512 ± 0.018 W/m/K
same,thermal conductivity,"366.45 K, 3958 kPa, Gas",0.05294 ± 0.017 W/m/K
same,thermal conductivity,"366.45 K, 3959 kPa, Gas",0.05452 ± 0.016 W/m/K
same,thermal conductivity,"366.45 K, 3960 kPa, Gas",0.05651 ± 0.015 W/m/K
same,thermal conductivity,"366.45 K, 3961 kPa, Gas",0.05848 ± 0.015 W/m/K
same,thermal conductivity,"366.45 K, 3962 kPa, Gas",0.06058 ± 0.014 W/m/K
same,thermal conductivity,"366.45 K, 3963 kPa, Gas",0.06307 ± 0.013 W/m/K
same,thermal conductivity,"366.45 K, 3964 kPa, Gas",0.06573 ± 0.013 W/m/K
same,thermal conductivity,"366.45 K, 3965 kPa, Gas",0.06816 ± 0.012 W/m/K
same,thermal conductivity,"366.45 K, 3966 kPa, Gas",0.07114 ± 0.012 W/m/K
same,thermal conductivity,"366.45 K, 3967 kPa, Gas",0.07411 ± 0.011 W/m/K
same,thermal conductivity,"366.45 K, 3968 kPa, Gas",0.07748 ± 0.011 W/m/K
same,thermal conductivity,"366.45 K, 3969 kPa, Gas",0.08195 ± 0.01 W/m/K
same,thermal conductivity,"366.45 K, 3970 kPa, Gas",0.08706 ± 0.0099 W/m/K
same,thermal conductivity,"366.45 K, 3971 kPa, Gas",0.09339 ± 0.015 W/m/K
same,thermal conductivity,"366.45 K, 3972 kPa, Gas",0.09783 ± 0.014 W/m/K
same,thermal conductivity,"366.45 K, 3973 kPa, Gas",0.1017 ± 0.013 W/m/K
same,thermal conductivity,"366.45 K, 3974 kPa, Gas",0.108 ± 0.011 W/m/K
same,thermal conductivity,"366.45 K, 3975 kPa, Gas",0.114 ± 0.0092 W/m/K
same,thermal conductivity,"366.45 K, 3976 kPa, Gas",0.1185 ± 0.0084 W/m/K
same,thermal conductivity,"366.45 K, 3977 kPa, Gas",0.1239 ± 0.0082 W/m/K
same,thermal conductivity,"366.45 K, 3978 kPa, Gas",0.1288 ± 0.0082 W/m/K
same,thermal conductivity,"366.45 K, 3979 kPa, Gas",0.1341 ± 0.0085 W/m/K
same,thermal conductivity,"366.45 K, 3980 kPa, Gas",0.1393 ± 0.0088 W/m/K
same,thermal conductivity,"366.45 K, 3981 kPa, Gas",0.1449 ± 0.0092 W/m/K
same,thermal conductivity,"366.45 K, 3982 kPa, Gas",0.1502 ± 0.0097 W/m/K
same,thermal conductivity,"366.45 K, 3983 kPa, Gas",0.1559 ± 0.01 W/m/K
same,thermal conductivity,"366.45 K, 3984 kPa, Gas",0.1614 ± 0.011 W/m/K
same,thermal conductivity,"366.45 K, 3985 kPa, Gas",0.1661 ± 0.011 W/m/K
same,thermal conductivity,"366.45 K, 3986 kPa, Gas",0.1732 ± 0.011 W/m/K
same,thermal conductivity,"366.45 K, 3987 kPa, Gas",0.1794 ± 0.012 W/m/K
same,thermal conductivity,"366.45 K, 3988 kPa, Gas",0.1853 ± 0.014 W/m/K
same,thermal conductivity,"366.45 K, 3989 kPa, Gas",0.1916 ± 0.015 W/m/K
same,thermal conductivity,"366.45 K, 3990 kPa, Gas",0.1977 ± 0.016 W/m/K
same,thermal conductivity,"366.45 K, 3991 kPa, Gas",0.2045 ± 0.017 W/m/K
same,thermal conductivity,"366.45 K, 3992 kPa, Gas",0.2108 ± 0.018 W/m/K
same,thermal conductivity,"366.45 K, 3993 kPa, Gas",0.2174 ± 0.017 W/m/K
same,thermal conductivity,"366.45 K, 3994 kPa, Gas",0.224 ± 0.018 W/m/K
same,thermal conductivity,"366.45 K, 3995 kPa, Gas",0.2309 ± 0.018 W/m/K
same,thermal conductivity,"366.45 K, 3996 kPa, Gas",0.2389 ± 0.019 W/m/K
same,thermal conductivity,"366.45 K, 3997 kPa, Liquid",0.2535 ± 0.02 W/m/K
same,thermal conductivity,"366.45 K, 3998 kPa, Liquid",0.2389 ± 0.019 W/m/K
same,thermal conductivity,"366.45 K, 3999 kPa, Liquid",0.2261 ± 0.018 W/m/K
same,thermal conductivity,"366.45 K, 4000 kPa, Liquid",0.2153 ± 0.017 W/m/K
same,thermal conductivity,"366.45 K, 4001 kPa, Liquid",0.2051 ± 0.016 W/m/K
same,thermal conductivity,"366.45 K, 4002 kPa, Liquid",0.196 ± 0.015 W/m/K
same,thermal conductivity,"366.45 K, 4003 kPa, Liquid",0.1879 ± 0.015 W/m/K
same,thermal conductivity,"366.45 K, 4004 kPa, Liquid",0.1801 ± 0.014 W/m/K
same,thermal conductivity,"366.45 K, 4005 kPa, Liquid",0.1734 ± 0.014 W/m/K
same,thermal conductivity,"366.45 K, 4006 kPa, Liquid",0.1669 ± 0.013 W/m/K
same,thermal conductivity,"366.45 K, 4007 kPa, Liquid",0.1612 ± 0.012 W/m/K
same,thermal conductivity,"366.45 K, 4008 kPa, Liquid",0.1563 ± 0.012 W/m/K
same,thermal conductivity,"366.45 K, 4009 kPa, Liquid",0.1513 ± 0.013 W/m/K
same,thermal conductivity,"366.45 K, 4010 kPa, Liquid",0.1467 ± 0.013 W/m/K
same,thermal conductivity,"366.45 K, 4011 kPa, Liquid",0.1425 ± 0.013 W/m/K
same,thermal conductivity,"366.45 K, 4012 kPa, Liquid",0.1387 ± 0.012 W/m/K
